This note sets out measurements from PMC9356783, “Succinimide Derivatives as Antioxidant Anticholinesterases, Anti-α-Amylase, and Anti-α-Glucosidase: In Vitro and In Silico Approaches” (Evidence-based Complementary and Alternative Medicine : eCAM, 2022).

A short description of assay [1]: ABTS radical scavenging assay. To be noted: for IC50: read-out: ABTS free radicals scavenging IC50. How it is done: A previously reported method for ABTS radical scavenging assay was used to determine the anti-oxidant activity of the synthetic compounds with negligible modification. The stock solution was prepared, e.g., 7 mM ABTS solution and 2.4 mM of potassium persulfate solution, and then mixed in equal amounts for about 16 hours. The stock solution was then diluted with methyl alcohol. Using a spectrophotometer, the absorption (0.7 ± 0.02) units at 734 nm wavelength were identified. In this assay, the solution was prepared freshly. The ABTS solution (150 µl) was mixed with the synthesized compounds (50 µl) and then reserved in darkness for about 10 minutes. The same procedure was repeated 3 times and then the results were verified using mean ± standard deviation. A solvent, e.g., methanol, was used as blank and the standard (butyl hydroxytoluen in methanol) were run at the same time. The absorbance was checked at a wavelength of 734 nm by utilizing a microplate reader.

Assay [2] can be described thus: DPPH radical scavenging assay. Particulars: for IC50: read-out: DPPH free radicals scavenging IC50. How it is done:
A previously reported method for DPPH radical scavenging activity was used to determine the anti-oxidant activity of the synthetic compounds with insignificant modification. A solution of DPPH, e.g., (50 µL of 1.0 × 10^−3 M), was prepared freshly and then added to CH3OH (methyl alcohol). A solvent like methanol was used as a control group. The mixture was then incubated for 30 minutes at 25°C. A spectrophotometer is used to calculate the DPPH free radicals at specific wavelength like 517 nm. After the incubation period, Trolox (drug) was used as the control group (positive). The anti-oxidant activity was determined using the following formula:(1) Percent Inhibition=Absorbancecontrol−Absorbancetest sample/Absorbancecontrol×100.

The target of assay [3] is T1, acetylcholinesterase (AChE) (Electrophorus electricus, UniProt O42275).
T1 construct: (AChE) acetylcholinesterase from electric eel; purchased Sigma Aldrich (local seller); host or cells: electric eel (natural source)
The assay can be described thus: biochemical. Type of assay: biochemical. The protocol: (§1) In Ellman's test, enzymes like (BChE) butyrylcholinesterase from equine serum and (AChE) acetylcholinesterase from electric eel were designated for studying the enzyme inhibitory capacity of the new synthesized compounds [33, 34].
(§2) Synthetic compounds in concentration ranging from 31.25 to 500 µg/ml, KH2PO4 (13.6 g/L) and K2HPO4 (17.4 g/L), were dissolved in 0.1 M phosphate buffer solution. After mixing, they were combined in 6 and 94% ratio, to make 0.1 M and 8.0 phosphate buffer solutions having […]. Potassium hydroxide was used to change the pH. The freshly prepared buffer […], AChE (518 U/mg solid), and BChE (7–16 U/mg) were diluted to achieve final absolute concentrations of 0.01 U/ml and 0.03 U/ml, respectively. In distilled water, BChI (0.0005 M), DTNB iedithio bis-nitrobenzoic acid solution (0.0002273 M), and AChI were prepared and then kept in the refrigerator [35].
(§3) After that, the substrate solution (5 μl) was added into the solution present in mixture form and was held in a water bath for 15 minutes at 30°C. Absorbance was measured at 412 nm using a double beam spectrophotometer. […] At 30°C, the absorbance and the time of the reaction were measured at 30°C for four minutes and repeated three times.

Assay [4] has as its target T2, butyrylcholinesterase (BChE) (Equus caballus, UniProt P81908).
T2 construct: (BChE) butyrylcholinesterase from equine serum; purchased Sigma Aldrich (local seller); host or cells: equine serum (natural source)
The assay can be described thus: biochemical. Type of assay: biochemical. How it is done:
as §1, §2, §3

For assay [5], the target named is α-glucosidase (Saccharomyces cerevisiae, UniProt P53341). The assay can be described thus: α-Glucosidase inhibitory assay. The format is biochemical. The protocol:
In this assay, glucopyranoside is added to the solvent (phosphate buffer). Various concentrations of the synthetized compounds like 500, 250, 125, 62.5, and 31.25 µg/ml were used for preparing the sample solutions. Glucosidase in distilled water (0.5 µg/ml) was added to the above mixture. This mixture was then incubated for 20 minutes at 37°C [36]. After the incubation period, the reaction mixture was ceased by the addition of hydrochloric acid. The color intensity was determined at 540 nm wavelength using a spectrophotometer. The formula which was used to determine percentage inhibition is:(3) Percent Inhibition=AbsorbanceControl−AbsorbanceSample/Absorbance Control×100.

The target in assay [6] is T3, α-amylase (Sus scrofa, UniProt P00690).
T3 sequence (P00690 16-511): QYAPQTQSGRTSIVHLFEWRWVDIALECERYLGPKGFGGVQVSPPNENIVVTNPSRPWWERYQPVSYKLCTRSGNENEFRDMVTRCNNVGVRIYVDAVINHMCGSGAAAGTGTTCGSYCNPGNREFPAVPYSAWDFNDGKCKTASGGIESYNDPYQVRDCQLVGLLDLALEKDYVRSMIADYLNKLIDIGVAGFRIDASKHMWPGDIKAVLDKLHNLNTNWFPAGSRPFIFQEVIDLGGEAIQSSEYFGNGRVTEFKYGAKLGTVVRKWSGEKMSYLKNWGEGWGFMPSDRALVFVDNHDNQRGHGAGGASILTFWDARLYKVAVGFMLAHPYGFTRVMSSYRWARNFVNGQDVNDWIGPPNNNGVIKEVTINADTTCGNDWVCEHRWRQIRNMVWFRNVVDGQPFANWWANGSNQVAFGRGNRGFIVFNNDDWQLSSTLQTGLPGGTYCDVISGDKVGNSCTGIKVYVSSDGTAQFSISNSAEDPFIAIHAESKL
The assay is described as follows: In vitro α-amylase inhibition assay. Type of assay: biochemical. The protocol: In this assay, previously documented protocols were used. […] Starch solution was then mixed with the above solution and then incubated for about 20 minutes at 37°C. After incubation, the reactant mixture was then kept in a water bath for some time at 100°C. Color intensity was measured using a microplate reader at 656 nm. To determine percentage inhibition, the following formula was used:(4) Percent Inhibition=AbsorbanceControl−AbsorbanceSample/Absorbance Control×100.

Setting [7] is: 500 μmol/mL (first value of the series).
The mark [8] stands for this setting: fifth value of series, presumably 31.25.
The mark [9] stands for this setting: first value of series, concentration not given (method 31.25 to 500 µg/ml).
The mark [10] stands for this setting: fourth value of series, presumably 62.5.
The mark [11] stands for this setting: second value of series, presumably 250.
The mark [12] stands for this setting: third value of series, presumably 125.

Several values for one entry are separate records, joined by “and”; a condition that tells them apart may be missing. Equal entries are not always repeated.

T1 sequence (O42275 24-633): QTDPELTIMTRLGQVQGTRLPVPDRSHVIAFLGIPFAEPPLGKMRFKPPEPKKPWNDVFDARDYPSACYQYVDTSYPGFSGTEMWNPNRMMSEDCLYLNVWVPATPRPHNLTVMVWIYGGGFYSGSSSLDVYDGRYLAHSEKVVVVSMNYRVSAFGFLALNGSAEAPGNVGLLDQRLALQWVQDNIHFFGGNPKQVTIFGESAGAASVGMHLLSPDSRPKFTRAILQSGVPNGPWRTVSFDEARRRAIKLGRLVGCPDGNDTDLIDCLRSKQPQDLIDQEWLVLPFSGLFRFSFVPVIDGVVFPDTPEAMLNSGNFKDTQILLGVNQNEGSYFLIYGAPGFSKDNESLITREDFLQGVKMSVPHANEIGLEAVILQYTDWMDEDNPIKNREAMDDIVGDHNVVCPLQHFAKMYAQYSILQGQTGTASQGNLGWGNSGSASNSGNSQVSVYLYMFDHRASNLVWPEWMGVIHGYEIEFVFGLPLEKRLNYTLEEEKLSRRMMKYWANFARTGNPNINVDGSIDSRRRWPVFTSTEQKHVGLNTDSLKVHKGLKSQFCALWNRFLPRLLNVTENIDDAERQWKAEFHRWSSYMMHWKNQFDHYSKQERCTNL
T2 sequence (P81908 whole entry): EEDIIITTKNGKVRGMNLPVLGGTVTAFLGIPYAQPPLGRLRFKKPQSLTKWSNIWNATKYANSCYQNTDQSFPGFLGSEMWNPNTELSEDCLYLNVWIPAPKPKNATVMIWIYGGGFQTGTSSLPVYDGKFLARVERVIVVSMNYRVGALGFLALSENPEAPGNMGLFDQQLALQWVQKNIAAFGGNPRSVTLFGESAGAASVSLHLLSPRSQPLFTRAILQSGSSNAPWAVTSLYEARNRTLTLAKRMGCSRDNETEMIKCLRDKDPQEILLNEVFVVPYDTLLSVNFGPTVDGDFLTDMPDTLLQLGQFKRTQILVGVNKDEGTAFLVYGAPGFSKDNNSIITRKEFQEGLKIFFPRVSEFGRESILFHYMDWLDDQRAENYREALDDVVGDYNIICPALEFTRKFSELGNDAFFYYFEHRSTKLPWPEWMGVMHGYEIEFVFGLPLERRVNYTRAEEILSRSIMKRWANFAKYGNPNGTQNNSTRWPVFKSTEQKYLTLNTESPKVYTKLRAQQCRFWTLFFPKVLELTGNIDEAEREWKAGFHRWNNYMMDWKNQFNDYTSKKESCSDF
Chain of α-glucosidase (P53341 whole entry): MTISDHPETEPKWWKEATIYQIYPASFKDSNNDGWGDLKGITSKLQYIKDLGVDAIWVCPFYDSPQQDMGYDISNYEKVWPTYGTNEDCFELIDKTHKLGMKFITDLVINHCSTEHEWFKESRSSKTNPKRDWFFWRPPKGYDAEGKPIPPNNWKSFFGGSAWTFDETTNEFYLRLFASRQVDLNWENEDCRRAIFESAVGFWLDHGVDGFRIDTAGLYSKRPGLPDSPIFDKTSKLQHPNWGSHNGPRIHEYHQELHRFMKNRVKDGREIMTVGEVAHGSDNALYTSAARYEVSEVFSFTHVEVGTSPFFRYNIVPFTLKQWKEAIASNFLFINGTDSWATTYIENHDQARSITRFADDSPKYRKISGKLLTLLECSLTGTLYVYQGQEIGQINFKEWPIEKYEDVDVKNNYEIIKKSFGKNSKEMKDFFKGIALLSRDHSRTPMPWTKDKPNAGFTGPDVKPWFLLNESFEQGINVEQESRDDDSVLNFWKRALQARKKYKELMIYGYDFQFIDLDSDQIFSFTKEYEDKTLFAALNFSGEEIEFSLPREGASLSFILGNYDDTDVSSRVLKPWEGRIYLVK

With `CC(=O)CC1CC(=O)N(c2ccccc2)C1=O` (centres unmarked) [MSJ9, 3-(2-oxopropyl)-1-phenylpyrrolidine-2,5-dione], the half-inhibitory concentration (IC50) in assay [1] is 38.1 µM; in assay [2] it was 53 µM.
On the same counts, the results for `CC1CCC(=O)C(C2CC(=O)N(Cc3ccccc3)C2=O)C1` (centres unmarked) [MSJ5, 1-benzyl-3-(5-methyl-2-oxocyclohexyl)pyrrolidine-2,5-dione] are 51.2 µM and 39 µM.
In the case of `CC1CCC(=O)C(C2CC(=O)N(c3ccccc3)C2=O)C1` (centres unmarked) [MSJ4, 3-(5-methyl-2-oxocyclohexyl)-1-phenylpyrrolidine-2,5-dione], the figures for the IC50 in assay [1] and in assay [2] were 48.7 µM and 32 µM, respectively.
On the same counts, the results for `O=C1CCCCCC1C1CC(=O)N(c2ccccc2)C1=O` (centres unmarked) [MSJ7, 3-(2-oxocycloheptyl)-1-phenylpyrrolidine-2,5-dione] are 36.3 µM and 31.4 µM.
Regarding `O=C1O[C@H]([C@@H](O)CO)C(O)=C1O` [Ascorbic acid, reference compound], the values for the IC50 in assay [1] and in assay [2] were 4.66 µM and 6.25 µM, respectively. Moreover, the “percent radical scavenging (DPPH)” value in assay [2] (31.25 μmol/mL (fifth value)) is given as 86.42 ± 0.43%; in assay [2] (62.5 μmol/mL (fourth value)) it was 88.22 ± 1.28%; in assay [2] (125 μmol/mL (third value)) it was 91.52 ± 0.66%; in assay [2] (250 μmol/mL (second value)), 93.56 ± 0.45%; in assay [2] (setting [7]) it was 98.65 ± 1.32%.
`CC(=O)C(C)(C)C1CC(=O)N(c2ccccc2)C1=O` (centres unmarked) [MSJ10, 3-(2-methyl-3-oxobutan-2-yl)-1-phenylpyrrolidine-2,5-dione]: the “percent anti-AChE potential” value in assay [3] (setting [8]) was 78.58 ± 1.12%; in assay [3] (setting [9]), 93.20% and 93.20 ± 0.10%; in assay [3] (setting [10]) it was 83.40 ± 0.25%; in assay [3] (setting [11]) it was 90.09 ± 0.32%; in assay [3] (setting [12]) it was 88.67 ± 1.20%. Moreover, the half-maximal inhibitory concentration (IC50) in assay [3] (read-out: IC50 against AChE) amounted to 4.97 µM; in assay [4] (read-out: IC50 against BChE), 10.7 µM; in assay [1], 3.29 µM; in assay [2] it was 2.52 µM. In addition, the “percent anti-BChE potential” value in assay [4] (setting [8]) is 73.89 ± 0.49%; in assay [4] (setting [9]), 91.36% and 91.36 ± 0.39%; in assay [4] (setting [10]), 78.26 ± 0.43%; in assay [4] (setting [11]), 87.15 ± 1.07%; in assay [4] (setting [12]) it was 83.00 ± 0.44%. The entries for the “percent inhibitions (ABTS)” value in assay [1] (62.5 µmo/mL (fourth value)), in assay [1] (125 µmo/mL (third value)) and in assay [1] (250 µmo/mL (second value)) were 79.67 ± 0.61%, 85.79 ± 0.63% and 90.90 ± 0.48%, respectively. For the same molecule, the “percent radical scavenging (DPPH)” value in assay [2] (62.5 μmol/mL (fourth value)) was 79.67 ± 0.61%; in assay [2] (125 μmol/mL (third value)) it was 85.79 ± 0.63%; in assay [2] (250 μmol/mL (second value)) it was 90.90 ± 0.48%.
`O=C1CCCCC1C1CC(=O)N(c2ccccc2)C1=O` (centres unmarked) [MSJ1, 3-(2-oxocyclohexyl)-1-phenylpyrrolidine-2,5-dione]: the IC50 is 29.4 µM in assay [1] and 34.6 µM in assay [2].
On to `O=C1CCCCC1C1CC(=O)N(Cc2ccccc2)C1=O` (centres unmarked) [MSJ2, 1-benzyl-3-(2-oxocyclohexyl) pyrrolidine-2,5-dione], for which the “percent anti-AChE potential” value in assay [3] (setting [9]) was found to be 91.90%. In assay [4] (setting [9]), the “percent anti-BChE potential” value turned out to be 97.30%. Moreover, the “percent inhibitions (ABTS)” value in assay [1] (31.25 µmo/mL (fifth value)) stood at 74.65 ± 1.34%. In addition, the results for the IC50 in assay [1] and in assay [2] were 7.32 µM and 2.59 µM, respectively. Also, the “percent radical scavenging (DPPH)” value in assay [2] (31.25 μmol/mL (fifth value)) turned out to be 73.45 ± 0.65%; in assay [2] (62.5 μmol/mL (fourth value)), 78.23 ± 0.44%; in assay [2] (125 μmol/mL (third value)), 81.50 ± 0.61%; in assay [2] (250 μmol/mL (second value)), 84.47 ± 0.46%; in assay [2] (setting [7]), 86.47 ± 0.70%.
As to `O=C1CCOCC1C1CC(=O)N(c2ccccc2)C1=O` (centres unmarked) [MSJ6, 3-(4-oxotetrahydro-2H-pyran-3-yl)-1-phenylpyrrolidine-2,5-dione], the IC50 in assay [1] came to 55.1 µM; in assay [2] it was 44.9 µM.
`O=C1CCCC1C1CC(=O)N(c2ccccc2)C1=O` (centres unmarked) [MSJ8, 3-(2-oxocyclopentyl)-1-phenylpyrrolidine-2,5-dione]: the IC50 in assay [1] was 25.2 µM; in assay [2] it was 29.2 µM.
In the case of `C[C@H]1O[C@H](O[C@H]2[C@H](O)[C@@H](O)[C@@H](O[C@H]3[C@H](O)[C@@H](O)C(O)O[C@@H]3CO)O[C@@H]2CO)[C@H](O)[C@@H](O)[C@@H]1N[C@H]1C=C(CO)[C@@H](O)[C@H](O)[C@H]1O` (some centres unmarked) [Acarbose], the α-glucosidase % inhibition was found to be 71.22 ± 0.47% in assay [5] (31.25 µmol/mL); 76.44 ± 0.28% in assay [5] (62.5 µmol/mL); 80.90 ± 1.11% in assay [5] (125 µmol/mL); 85.03 ± 2.16% in assay [5] (250 µmol/mL); 94.40 ± 0.03% in assay [5] (500 µmol/mL). The α-amylase percent inhibition is given as 75.45 ± 0.90% in assay [6] (31.25 µmol/mL), 77.61 ± 0.43% in assay [6] (62.5 µmol/mL), 82.40 ± 0.20% in assay [6] (125 µmol/mL) and 91.90 ± 0.96% in assay [6] (500 µmol/mL).
As for `O=C1CCCCC1C1CC(=O)N(c2ccc(Br)cc2)C1=O` (centres unmarked) [MSJ3, 1-(4-bromophenyl)-3-(2-oxocyclohexyl) pyrrolidine-2,5-dione], the IC50 came to 24 µM in assay [1] and 33.5 µM in assay [2].
